# In PubChem BioAssay (NCI):
#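 Five compound concentrations were applied to cells in 96-well plates for 48 hours; endpoints were derived by simple linear interpolation of the resulting dose-response curve. GI50 is the concentration that inhibits growth by half. TGI is the concentration that stops growth completely.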
# Legend:
# Test in all cases: NCI tumour cell line growth inhibition, 48 h
# UO-31 renal = test system: UO-31 renal
# IGROV1 ovarian = test system: IGROV1 ovarian
# SNB-75 CNS = test system: SNB-75 CNS
# HOP-62 NSCLC = test system: HOP-62 NSCLC
# HCT-116 colon = test system: HCT-116 colon
# SR leukemia = test system: SR leukemia
# OVCAR-3 ovarian = test system: OVCAR-3 ovarian
# HOP-92 NSCLC = test system: HOP-92 NSCLC
# T-47D breast = test system: T-47D breast
# SW-620 colon = test system: SW-620 colon
# MDA-MB-435 = test system: MDA-MB-435
# HL-60(TB) leukemia = test system: HL-60(TB) leukemia
# A498 renal = test system: A498 renal
# KM12 colon = test system: KM12 colon
# K-562 leukemia = test system: K-562 leukemia
# HT29 colon = test system: HT29 colon
# U251 CNS = test system: U251 CNS
# UACC-257 melanoma = test system: UACC-257 melanoma
# NCI/ADR-RES ovarian = test system: NCI/ADR-RES ovarian
# NCI-H460 lung = test system: NCI-H460 lung
# NCI-H23 lung = test system: NCI-H23 lung
# CCRF-CEM leukemia = test system: CCRF-CEM leukemia
# A549 NSCLC = test system: A549 NSCLC
# SK-OV-3 ovarian = test system: SK-OV-3 ovarian
# SF-539 CNS = test system: SF-539 CNS
# MOLT-4 leukemia = test system: MOLT-4 leukemia
# SK-MEL-28 melanoma = test system: SK-MEL-28 melanoma
# SK-MEL-2 melanoma = test system: SK-MEL-2 melanoma
# HCC-2998 colon = test system: HCC-2998 colon
# SF-268 CNS = test system: SF-268 CNS
# MALME-3M melanoma = test system: MALME-3M melanoma
# OVCAR-8 ovarian = test system: OVCAR-8 ovarian
# LOX IMVI melanoma = test system: LOX IMVI melanoma
# SK-MEL-5 melanoma = test system: SK-MEL-5 melanoma
# ACHN renal = test system: ACHN renal
# SNB-19 CNS = test system: SNB-19 CNS
# HS 578T breast = test system: HS 578T breast
# OVCAR-5 ovarian = test system: OVCAR-5 ovarian
# SF-295 CNS = test system: SF-295 CNS
# NCI-H522 lung = test system: NCI-H522 lung
# CAKI-1 renal = test system: CAKI-1 renal
# COLO 205 colon = test system: COLO 205 colon
# PC-3 prostate = test system: PC-3 prostate
# TK-10 renal = test system: TK-10 renal
# 786-0 renal = test system: 786-0 renal
# M14 melanoma = test system: M14 melanoma
# MDA-MB-231 breast = test system: MDA-MB-231 breast
# OVCAR-4 ovarian = test system: OVCAR-4 ovarian
# MCF7 breast = test system: MCF7 breast
# HCT-15 colon = test system: HCT-15 colon
# BT-549 breast = test system: BT-549 breast
# UACC-62 melanoma = test system: UACC-62 melanoma
# SN12C renal = test system: SN12C renal
# NCI-H226 lung = test system: NCI-H226 lung
# DU-145 prostate = test system: DU-145 prostate
smiles,measurement,setting,value
O=C1C(Cl)=C(Nc2cccc(C(F)(F)F)c2)C(=O)N1Cc1ccc(Cl)cc1,GI50,UO-31 renal,1.11 µM
same,TGI,UO-31 renal,33.8 µM
same,GI50,IGROV1 ovarian,2.76 µM
same,TGI,IGROV1 ovarian,> 48.5 µM
same,GI50,SNB-75 CNS,1.07 µM
same,TGI,SNB-75 CNS,20 µM
same,GI50,HOP-62 NSCLC,0.835 µM
same,TGI,HOP-62 NSCLC,17.4 µM
same,GI50,HCT-116 colon,0.0705 µM
same,TGI,HCT-116 colon,4.88 µM
same,GI50,SR leukemia,< 0.0219 µM
same,TGI,SR leukemia,> 65.3 µM
same,GI50,OVCAR-3 ovarian,0.16 µM
same,TGI,OVCAR-3 ovarian,5.76 µM
same,GI50,HOP-92 NSCLC,15 µM
same,TGI,HOP-92 NSCLC,33.1 µM
same,GI50,T-47D breast,2.11 µM
same,TGI,T-47D breast,30.8 µM
same,GI50,SW-620 colon,0.0609 µM
same,TGI,SW-620 colon,16.9 µM
same,TGI,MDA-MB-435,4.46 µM
same,GI50,HL-60(TB) leukemia,1.7 µM
same,TGI,HL-60(TB) leukemia,> 100 µM
same,GI50,A498 renal,0.73 µM
same,TGI,A498 renal,15.7 µM
same,GI50,KM12 colon,2.35 µM
same,TGI,KM12 colon,19.6 µM
same,GI50,K-562 leukemia,1.33 µM
same,TGI,K-562 leukemia,> 100 µM
same,GI50,HT29 colon,0.595 µM
same,TGI,HT29 colon,24.9 µM
same,GI50,U251 CNS,0.0371 µM
same,TGI,U251 CNS,13.1 µM
same,GI50,UACC-257 melanoma,6.59 µM
same,TGI,UACC-257 melanoma,22.2 µM
same,GI50,NCI/ADR-RES ovarian,< 0.0431 µM
same,TGI,NCI/ADR-RES ovarian,12.3 µM
same,GI50,NCI-H460 lung,< 0.0461 µM
same,TGI,NCI-H460 lung,13.3 µM
same,GI50,NCI-H23 lung,0.162 µM
same,TGI,NCI-H23 lung,8.01 µM
same,GI50,CCRF-CEM leukemia,0.59 µM
same,TGI,CCRF-CEM leukemia,> 100 µM
same,GI50,A549 NSCLC,1.13 µM
same,TGI,A549 NSCLC,16.9 µM
same,GI50,SK-OV-3 ovarian,3.78 µM
same,TGI,SK-OV-3 ovarian,20.8 µM
same,GI50,SF-539 CNS,0.128 µM
same,TGI,SF-539 CNS,2.09 µM
same,GI50,MOLT-4 leukemia,0.119 µM
same,TGI,MOLT-4 leukemia,> 100 µM
same,GI50,SK-MEL-28 melanoma,3.95 µM
same,TGI,SK-MEL-28 melanoma,23.6 µM
same,GI50,SK-MEL-2 melanoma,4.02 µM
same,TGI,SK-MEL-2 melanoma,> 25.9 µM
same,GI50,HCC-2998 colon,0.835 µM
same,TGI,HCC-2998 colon,18.8 µM
same,GI50,SF-268 CNS,0.312 µM
same,TGI,SF-268 CNS,14.8 µM
same,GI50,MALME-3M melanoma,< 0.0488 µM
same,TGI,MALME-3M melanoma,0.741 µM
same,GI50,OVCAR-8 ovarian,0.699 µM
same,TGI,OVCAR-8 ovarian,23.3 µM
same,GI50,LOX IMVI melanoma,0.241 µM
same,TGI,LOX IMVI melanoma,5.15 µM
same,GI50,SK-MEL-5 melanoma,0.621 µM
same,TGI,SK-MEL-5 melanoma,13.5 µM
same,GI50,ACHN renal,0.421 µM
same,TGI,ACHN renal,15.1 µM
same,GI50,SNB-19 CNS,6.37 µM
same,TGI,SNB-19 CNS,24.1 µM
same,GI50,HS 578T breast,0.711 µM
same,TGI,HS 578T breast,33 µM
same,GI50,OVCAR-5 ovarian,2.2 µM
same,TGI,OVCAR-5 ovarian,23.5 µM
same,TGI,SF-295 CNS,16.2 µM
same,GI50,NCI-H522 lung,2.11 µM
same,TGI,NCI-H522 lung,25.2 µM
same,GI50,CAKI-1 renal,0.289 µM
same,TGI,CAKI-1 renal,16.4 µM
same,GI50,COLO 205 colon,0.867 µM
same,TGI,COLO 205 colon,20.1 µM
same,GI50,PC-3 prostate,0.298 µM
same,TGI,PC-3 prostate,16.8 µM
same,GI50,TK-10 renal,1.08 µM
same,TGI,TK-10 renal,19.3 µM
same,GI50,786-0 renal,< 0.0324 µM
same,TGI,786-0 renal,13.5 µM
same,GI50,M14 melanoma,1.34 µM
same,TGI,M14 melanoma,18.5 µM
same,GI50,MDA-MB-231 breast,0.207 µM
same,TGI,MDA-MB-231 breast,8.74 µM
same,GI50,OVCAR-4 ovarian,5.32 µM
same,TGI,OVCAR-4 ovarian,> 50.9 µM
same,TGI,MCF7 breast,4.82 µM
same,GI50,HCT-15 colon,0.166 µM
same,TGI,HCT-15 colon,12.5 µM
same,GI50,BT-549 breast,0.154 µM
same,TGI,BT-549 breast,20.3 µM
same,TGI,UACC-62 melanoma,1.26 µM
same,GI50,SN12C renal,0.545 µM
same,TGI,SN12C renal,10.7 µM
same,GI50,NCI-H226 lung,< 0.0129 µM
same,GI50,DU-145 prostate,1.13 µM
same,TGI,DU-145 prostate,7.92 µM
